{"source": "patent US20160160224A1", "about": "“CRYPTOSPORIDIUM TRANSFECTION METHODS AND TRANSFECTED CRYPTOSPORIDIUM CELLS” (UNIVERSITY OF GEORGIA RESEARCH FOUNDATION, INC., priority 2013, published 2016)", "tested_on": "C. parvum", "experiment": "Nluc luciferase assay of transfected C. parvum cultured in HCT-8 cells in the presence of drug", "assay_type": "cell-based, Cryptosporidium parvum", "conditions": "electroporated (Nluc-transfected) C. parvum grown in paramomycin on HCT-8 host cells; FIG. 3D", "excerpt": "Next, we performed transfections and then cultured the transfected parasites in the presence of paramomycin, a drug that reduces growth of C. parvum but not the mammalian host cell. […] (FIG. 3D). We also tested an Nluc plasmid that lacks the Cryptosporidium promoter but carries Toxoplasma flanking sequences instead. […] Lastly, we tested whether parasite vectors can transduce host cells by deliberately delivering plasmid DNA into the HCT-8 host cell cytoplasm by lipofection. […] Collectively these measurements confirm that Apicomplexa and mammals have divergent primary sequence elements that drive transcription and subsequent RNA processing. Cryptosporidium transfection therefore depends on the introduction of a parasite species specific vector into viable parasites. Moreover, passive DNA delivery into the host is not relevant for activity and host cells are not transfected even when DNA is deliberately introduced into the host. […]\nFor in vitro experiments, cells were scraped from T-25 flasks or 24-well plates and collected after 48 hours of incubation. […] After five minutes of incubation at room temperature, the cell lysate was added to white 96 well plates and luminescence was measured on a luminometer (BioTek Instruments, Inc., Winooski, Vt.). The read out was quantified in terms of relative luminescence units (RLU).", "data": [{"smiles": "NC[C@@H]1O[C@H](O[C@H]2[C@@H](O)[C@H](O[C@@H]3[C@@H](O)[C@H](N)C[C@H](N)[C@H]3O[C@H]3O[C@H](CO)[C@@H](O)[C@H](O)[C@H]3N)O[C@@H]2CO)[C@H](N)[C@@H](O)[C@@H]1O", "note": "[Paramomycin, paramomycin]", "values": [{"measurement": "Nluc expression (luciferase activity)", "result": "reduction of Nluc expression"}]}]}
